# What was measured:
# Pim1 kinase = Pim1 kinase (Homo sapiens, UniProt P11309); experiment: Pim1 ATP depletion assay; format: biochemical; conditions: Pim1 ATP depletion assay; read-out: IC50 (μM) PIM1;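 also: Luciferase-luciferin luminescence readout of residual ATP after PIM1 transfers phosphate to a peptide substrate, 40 µM ATP added, reaction run to roughly half ATP consumption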
# Pim2 kinase = Pim2 kinase (Homo sapiens, UniProt Q9P1W9); experiment: Pim2 ATP depletion assay; format: biochemical; conditions: read-out: IC50 (μM) PIM2;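 also: Luciferase-based luminescent readout of ATP remaining after PIM2 phosphorylates a BAD peptide, final 5 nM enzyme, 4 µM ATP, 10 µM peptide, 2.5% DMSO, run to roughly half ATP consumption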
# Pim3 kinase = Pim3 kinase (Homo sapiens, UniProt Q86V86); experiment: Pim3 ATP depletion assay; format: biochemical; conditions: read-out: IC50 (μM) PIM3
# HEL 92.1.7 cells = experiment: Cell proliferation assay (CellTiter-Glo), HEL 92.1.7; format: cell-based; conditions: Homo sapiens, read-out: EC50 (μM) HEL 92.1.7
# Procedure: HEL 92.1.7 cells (ATTC No. TIB-180, an erythroleukemia line derived from malignant peripheral blood), MV4-11 cells (ATCC No. CRL-9591, a human acute monocytic leukemia line) and PC3 cells (ATCC No. CRL-1435, a human prostatic adenocarcinoma line) were cultured in RPMI1640 supplemented with 10% FBS, sodium pyruvate and antibiotics. Cells were plated in the same medium at a density of 1000 cells per well into 96 well tissue culture plates, with outside wells vacant, on the day of assay.
# Test compounds supplied in DMSO were diluted into DMSO at 500 times the desired final concentrations before dilution into culture media to 2 times final concentrations. Equal volumes of 2× compounds were added to the cells in 96 well plates and incubated at 37° C. for 3 days.
# After 3 days plates were equilibrated to room temperature and equal volume of CellTiter-Glow Reagent (Promega) was added to the culture wells. The plates were agitated briefly and luminescent signal was measured with luminometer. The percent inhibition of the signal seen in cells treated with DMSO alone vs. cells treated with control compound was calculated and used to determine EC50 values (i.e., the concentration of a test compound that is required to obtain 50% of the maximum effect in the cells) for tested compounds, as shown in Example 763.
# [1] = target: T1, human full length PKCE enzyme (Homo sapiens, UniProt Q02156); experiment: In vitro PKCE assay; format: biochemical; conditions: 10 nM enzyme, 40 uM peptide substrate, 20 uM ATP, KinaseGlo Plus readout; read-out: PKCε IC50
# T1 construct: human full length PKCE enzyme purchased from InVitrogen; purchased InVitrogen
# T1 sequence (Q02156 1-737): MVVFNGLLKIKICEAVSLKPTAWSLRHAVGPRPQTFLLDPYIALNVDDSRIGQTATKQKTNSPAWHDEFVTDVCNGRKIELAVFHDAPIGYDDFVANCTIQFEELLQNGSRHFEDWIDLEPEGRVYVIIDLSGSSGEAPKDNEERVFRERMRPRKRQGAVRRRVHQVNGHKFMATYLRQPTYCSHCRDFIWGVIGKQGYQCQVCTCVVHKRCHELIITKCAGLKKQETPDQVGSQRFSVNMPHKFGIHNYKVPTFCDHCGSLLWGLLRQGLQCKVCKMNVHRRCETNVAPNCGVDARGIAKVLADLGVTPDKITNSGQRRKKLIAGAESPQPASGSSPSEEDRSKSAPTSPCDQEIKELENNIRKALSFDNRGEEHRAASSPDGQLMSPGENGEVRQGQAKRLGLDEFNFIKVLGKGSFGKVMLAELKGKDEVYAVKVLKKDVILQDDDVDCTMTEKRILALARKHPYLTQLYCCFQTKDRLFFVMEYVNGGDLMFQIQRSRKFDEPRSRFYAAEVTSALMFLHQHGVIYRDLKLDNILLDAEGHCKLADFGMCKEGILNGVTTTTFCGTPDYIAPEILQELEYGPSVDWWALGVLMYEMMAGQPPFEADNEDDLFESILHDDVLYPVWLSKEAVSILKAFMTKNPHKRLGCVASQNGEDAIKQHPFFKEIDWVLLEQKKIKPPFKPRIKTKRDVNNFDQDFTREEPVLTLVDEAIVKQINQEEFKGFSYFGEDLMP
# Chain of Pim1 kinase (P11309 whole entry): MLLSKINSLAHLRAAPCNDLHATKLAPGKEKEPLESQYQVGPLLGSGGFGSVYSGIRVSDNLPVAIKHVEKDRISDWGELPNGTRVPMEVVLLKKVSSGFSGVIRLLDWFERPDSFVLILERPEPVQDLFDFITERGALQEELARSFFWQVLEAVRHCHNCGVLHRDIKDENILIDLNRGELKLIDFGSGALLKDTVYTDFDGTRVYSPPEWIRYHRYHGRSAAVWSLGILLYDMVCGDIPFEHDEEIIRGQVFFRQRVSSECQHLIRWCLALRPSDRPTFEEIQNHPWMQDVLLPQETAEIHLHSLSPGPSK
# Chain of Pim2 kinase (Q9P1W9 whole entry): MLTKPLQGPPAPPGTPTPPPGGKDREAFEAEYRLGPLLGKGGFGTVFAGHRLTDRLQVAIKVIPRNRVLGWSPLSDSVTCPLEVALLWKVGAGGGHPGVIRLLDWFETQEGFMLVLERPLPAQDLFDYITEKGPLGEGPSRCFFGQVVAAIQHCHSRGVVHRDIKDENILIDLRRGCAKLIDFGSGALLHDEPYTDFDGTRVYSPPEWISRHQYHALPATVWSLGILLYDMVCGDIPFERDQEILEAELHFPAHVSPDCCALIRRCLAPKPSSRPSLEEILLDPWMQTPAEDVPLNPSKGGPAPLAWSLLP
IC50 (Pim1 kinase) [µM],IC50 (Pim2 kinase) [µM],IC50 (Pim3 kinase) [µM],IC50 [1] [nM],SMILES,EC50 (HEL 92.1.7 cells) [µM]
< 1,< 1,< 1,< 1000,"Nc1ncc(-c2ccccc2F)nc1C(=O)Nc1cnccc1N1CCCC(N)C1 (centres unmarked) [Example 350, 3-amino-6-(2-fluoro-phenyl)-pyrazine-2-carboxylic acid (3-amino-3,4,5,6-tetrahydro-2H-[1,4′]bipyridinyl-3′-yl)-amide]",< 1
< 1,< 1,< 1,,"Nc1ncc(-c2ccc(O)cc2)nc1C(=O)Nc1cnccc1N1CCCC(N)C1 (centres unmarked) [Example 358, 3-amino-6-(4-hydroxy-phenyl)-pyrazine-2-carboxylic acid (3-amino-3,4,5,6-tetra-hydro-2H-[1,4′]bipyridinyl-3′-yl)-amide]",< 1
< 1,< 1,< 1,,"COc1cc(F)ccc1-c1ccc(N)c(C(=O)Nc2cnccc2N2CCC[C@H](N)C2)n1 [Example 428, 3-amino-6-(4-fluoro-2-methoxy-phenyl)-pyridine-2-carboxylic acid ((S)-3-amino-3,4,5,6-tetra-hydro-2H-[1,4′]bipyridinyl-3′-yl)-amide]",5 to 10
< 1,< 1,< 1,,"Nc1ccc(-c2ccncc2)nc1C(=O)Nc1cnccc1N1CCC[C@H](N)C1 [Example 415, 5-amino-[2,4′]bipyridinyl-6-carboxylic acid ((S)-3-amino-3,4,5,6-tetrahydro-2H-[1,4′]bi-pyridinyl-3′-yl)-amide]",< 1
< 1,< 1,< 1,,"Nc1ccc(-c2cccnc2F)nc1C(=O)Nc1cnccc1N1CCC[C@H](N)C1 [Example 419, 5-amino-2′-fluoro-[2,3′]bi-pyridinyl-6-carboxylic acid ((S)-3-amino-3,4,5,6-tetrahydro-2H-[1,4′]bipyridinyl-3′-yl)-amide]",1 to 5
< 1,< 1,< 1,,"Nc1ccc(-c2cccnc2)nc1C(=O)Nc1cnccc1N1CCC[C@H](N)C1 [Example 414, 5-amino-[2,3′]bipyridinyl-6-carboxylic acid ((S)-3-amino-3,4,5,6-tetrahydro-2H-[1,4′]bi-pyridinyl-3′-yl)-amide]",1 to 5
< 1,< 1,< 1,,"Nc1cc(-c2ccc(N)c(C(=O)Nc3cnccc3N3CCC[C@H](N)C3)n2)ccn1 [Example 412, 5,2′-diamino-[2,4′]bipyridinyl-6-carboxylic acid ((S)-3-amino-3,4,5,6-tetrahydro-2H-[1,4′]bi-pyridinyl-3′-yl)-amide]",5 to 10
< 1,< 1,< 1,,"COc1cccc(-c2ccc(N)c(C(=O)Nc3cnccc3N3CCC[C@H](N)C3)n2)n1 [Example 413, 5-amino-6′-methoxy-[2,2′]bi-pyridinyl-6-carboxylic acid ((S)-3-amino-3,4,5,6-tetrahydro-2H-[1,4′]bipyridinyl-3′-yl)-amide]",< 1
< 1,< 1,< 1,,"Cc1cc(F)ccc1-c1ccc(N)c(C(=O)Nc2cnccc2N2CCC[C@H](N)C2)n1 [Example 430, 3-amino-6-(4-fluoro-2-methyl-phenyl)-pyridine-2-carboxylic acid ((S)-3-amino-3,4,5,6-tetra-hydro-2H-[1,4′]bipyridinyl-3′-yl)-amide]",1 to 5

# Continued, compound first:
SMILES,IC50 (Pim1 kinase) [µM],IC50 (Pim2 kinase) [µM],IC50 (Pim3 kinase) [µM],IC50 [1] [nM],EC50 (HEL 92.1.7 cells) [µM]
"Nc1nc(N)c(C(=O)Nc2[nH]c(=O)ncc2N2CCCC(C(F)(F)F)C2)nc1Cl (centres unmarked) [Example 148, 3,5-diamino-6-chloro-N-{2-oxo-5-[3-(trifluoromethyl)piperidin-1-yl]-2,3-dihydropyrimidin-4-yl}pyrazine-2-carboxamide]",< 1,< 1,< 1,10000 to 25000,> 10
"Nc1ncc(Br)nc1C(=O)Nc1[nH]c(=O)ncc1-c1ccccn1 [Example 145, 3-amino-6-bromo-N-(2-oxo-5-pyridin-2-yl-2,3-dihydro-pyrimidin-4-yl)pyrazine-2-carboxamide]",< 1,< 1,< 1,> 25000,1 to 5
"Cc1ccc(S(=O)(=O)NC(C)(C)C)cc1-c1ccc(N)c(C(=O)Nc2cnccc2N2CCC[C@H](N)C2)n1 [Example 335, 3-amino-6-(5-tert-butyl-sulfamoyl-2-methyl-phenyl)-pyridine-2-carboxylic acid ((S)-3-amino-3,4,5,6-tetra-hydro-2H-[1,4′]bipyridinyl-3′-yl)-amide]",< 1,< 1,< 1,,5 to 10
"Nc1ncc(Br)nc1C(=O)Nc1cnccc1N1CCCC(N)C1 (centres unmarked) [Example 181, 3-amino-N-[4-(3-aminopiperidin-1-yl)pyridin-3-yl]-6-bromopyrazine-2-carboxamide]",< 1,< 1,< 1,,< 1
"COC(=O)c1ccc(-c2ccc(N)c(C(=O)Nc3cnccc3N3CCC[C@H](N)C3)n2)c(F)c1 [Example 325, 4-[5-amino-6-((S)-3-amino-3,4,5,6-tetrahydro-2H-[1,4′]bi-pyridinyl-3′-ylcarbamoyl)-pyridin-2-yl]-3-fluoro-benzoic acid methyl ester]",< 1,< 1,< 1,,1 to 5
"CCCNC(=O)c1ccc(F)c(-c2ccc(N)c(C(=O)Nc3cnccc3N3CCC[C@H](N)C3)n2)c1 [Example 326, 3-amino-6-(2-fluoro-5-propyl-carbamoyl-phenyl)-pyridine-2-carboxylic acid ((S)-3-amino-3,4,5,6-tetrahydro-2H-[1,4′]bipyridinyl-3′-yl)-amide]",< 1,< 1,< 1,,1 to 5
"Nc1ccc(-c2cc(C(=O)NC3CCCCC3)ccc2F)nc1C(=O)Nc1cnccc1N1CCC[C@H](N)C1 [Example 324, 3-amino-6-(5-cyclohexyl-carbamoyl-2-fluoro-phenyl)-pyridine-2-carboxylic acid ((S)-3-amino-3,4,5,6-tetra-hydro-2H-[1,4′]bipyridinyl-3′-yl)-amide]",< 1,< 1,< 1,,< 1
"CCNC(=O)c1ccc(F)c(-c2ccc(N)c(C(=O)Nc3cnccc3N3CCC[C@H](N)C3)n2)c1 [Example 327, 3-amino-6-(5-ethylcarbamoyl-2-fluoro-phenyl)-pyridine-2-carboxylic acid ((S)-3-amino-3,4,5,6-tetrahydro-2H-[1,4′]bi-pyridinyl-3′-yl)-amide]",< 1,< 1,< 1,,1 to 5
"Nc1ccc(-c2ccncc2F)nc1C(=O)Nc1cnccc1N1CCC[C@H](N)C1 [Example 339, 5-amino-3′-fluoro-[2,4′]bi-pyridinyl-6-carboxylic acid ((S)-3-amino-3,4,5,6-tetra-hydro-2H-[1,4′]bipyridinyl-3′-yl)-amide]",< 1,< 1,< 1,,1 to 5
"CS(=O)(=O)c1ccc(-c2ccc(N)c(C(=O)Nc3cnccc3N3CCC[C@H](N)C3)n2)cc1 [Example 319, 3-amino-6-(4-methane-sulfonyl-phenyl)-pyridine-2-carboxylic acid ((S)-3-amino-3,4,5,6-tetrahydro-2H-[1,4′]bi-pyridinyl-3′-yl)-amide]",< 1,< 1,< 1,,1 to 5
"Nc1nccnc1C(=O)Nc1cnccc1N1CCC[C@@H](N)C1 [Example 177, 3-amino-N-{4-[(3R)-3-amino-piperidin-1-yl]pyridin-3-yl}pyrazine-2-carboxamide]",,< 1,< 1,< 1000,> 10

# Reference: patent US20140249135A1, “PIM KINASE INHIBITORS AND METHODS OF THEIR USE” (NOVARTIS AG, priority 2007, published 2014)
